Like-named read-outs stand apart in the source and are kept apart here.
Experiments:
PC-3 cells = experiment: Cell Proliferation Assay (Cell Titer Glo), PC-3 cell line; format: cell-based; settings: Homo sapiens, read-out: CPEC50 PC3
Procedure: IV. Cell Proliferation Assay Protocol:
A2780, PC-3, or PC3MM cells were seeded at 1000 cells/well in 100 μL/well (10.000 cells/mL) growth media in 96-well plates. Cells were allowed to adhere to the bottom of plates for 3-5 hours in a 37° C. 5% CO2 incubator. Compounds were dissolved in DMSO and then transferred to the cell plates. The cells were incubated with the compounds for 3 days in a 37° C. 5% CO2 incubator. The growth medium containing the compounds was then removed from the cells and fresh medium was added, followed by 100 μL of Cell Titer Glo assay reagent (Promega). This mixture was shaken for 1 minute and then incubated without shaking for 10 minutes. Activity determinations for the compounds were made by detection on a Trilux Instrument.
V. Cell Proliferation Assay Protocol: PC-3 Cell Line
PC-3 cells were seeded at 1000 cells/well in 100 μL/well (10.000 cells/mL) along with growth media into black-walled, clear bottom 96-well plates. The cells were allowed to adhere to the bottom of the plate for 3-5 hours in a 37° C. 5% CO2 incubator.
Test compounds were diluted to 500× in DMSO. The DMSO solutions of six of the compounds were transferred to the cells in the 96 well round bottom plate, column 2, row B-F. A 1:3 serial dilution of each compound was carried out. The serial dilution comprised adding 20 μL of DMSO to the wells containing the compounds and doing a 1:3 dilution across the plate from columns 2-10. Column 11 contained only DMSO. The serial dilution was carried out using a BioMek 2000 protocol “CP Serial Dilution using 250 μL tips” or “Proliferation Compound” (if using 20 μL tips).
To a 96 deep well block, columns 2-11 rows B-F, was transferred 500 μL of growth medium. Using the FX protocol “HH_CellAssay—2 μL to 500 μL”, 2 μL of compound from each cell of the compound plate was transferred to the corresponding cell in the 96 deep well block containing 500 μL of growth medium. The instrument was programmed to dilute the compound in growth medium and then transfer 100 μL of that mixture to cell plates containing cells. The cell plates, to which test compounds had been added, were incubated for 3 days at 37° C. Following the incubation, the medium was removed and replaced with fresh medium. Cell Titer Glo (100 μL) was added to each well and the plate was shaken for 1 minute and then incubated without shaking for 10 minutes. The plates were then read using a Trilux instrument.

PDK1 kinase = target: T1, PDK1 kinase (Homo sapiens, UniProt O15530); experiment: PDK1 Kinase Alpha Screen Assay; format: biochemical; settings: read-out: PDK1 IC50
T1 sequence (O15530 1-556): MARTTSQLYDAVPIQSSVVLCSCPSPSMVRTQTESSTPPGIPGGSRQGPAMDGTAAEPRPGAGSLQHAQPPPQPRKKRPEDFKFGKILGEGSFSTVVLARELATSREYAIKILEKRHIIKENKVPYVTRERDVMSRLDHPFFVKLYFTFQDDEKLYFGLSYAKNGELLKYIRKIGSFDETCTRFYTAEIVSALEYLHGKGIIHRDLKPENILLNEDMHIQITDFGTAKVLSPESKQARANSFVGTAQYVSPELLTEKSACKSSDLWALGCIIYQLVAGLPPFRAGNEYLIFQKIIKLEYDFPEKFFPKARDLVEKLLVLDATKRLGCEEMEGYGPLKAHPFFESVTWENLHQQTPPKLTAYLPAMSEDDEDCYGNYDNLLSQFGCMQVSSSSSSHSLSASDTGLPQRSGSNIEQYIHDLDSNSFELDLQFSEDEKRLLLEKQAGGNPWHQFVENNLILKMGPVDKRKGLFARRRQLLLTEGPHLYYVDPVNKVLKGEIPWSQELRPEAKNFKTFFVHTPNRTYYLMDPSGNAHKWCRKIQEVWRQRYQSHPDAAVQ
Procedure: 1. PDK1 Kinase Alpha Screen Assay
Reagents/Concentrations: The PDK1-4 peptide substrate, biotin-[…]-NH2, was purchased from the Tufts University Core Facility. The final concentration of PDK1-4 peptide substrate was 50 nM The ATP substrate (Adenosine-5′-triphosphate) was purchased from Roche Diagnostics. The final concentration of ATP substrate was 10 uM. Phospho-(Ser/Thr) PKA substrate antibody was purchased from Cell Signaling Technology. The final concentration of antibody was 0.3 mg/ml. The Alpha Screen Protein A detection kit containing donor and acceptor beads was purchased from PerkinElmer Life Sciences. The final concentration of both donor and acceptor beads was 25 μg/ml. Alpha Screen was used for detection. The biotinylated-PDK1-4 peptide was phosphorylated by PDK1 kinase using the ATP substrate. The biotinylated-PDK1-4 peptide substrate was bound to the streptavidin coated donor bead. The antibody was bound to the protein A coated acceptor bead. The antibody bound to the phosphorylated form of the biotinylated PDK-1 peptide substrate, bringing the donor and acceptor beads into close proximity. Laser irradiation of the donor bead at 680 nm generated a flow of short-lived singlet oxygen molecules. When the donor and acceptor beads were in close proximity, the reactive oxygen generated by the irradiation of the donor beads initiated a luminescence/fluorescence cascade in the acceptor beads. This process led to a highly amplified signal with output in the 530-620 nm range. Assays were carried out in 50 mM Tris, pH=7.5, 10 mM MgCl2, 0.1% Bovine Serum Albumin, 0.01% Tween-20, 2 mM Dithiolthreitol, 2.5% Dimethyl Sulfoxide. Reactions were stopped by adding 50 mM Tris, pH=7.5, 90 mM EDTA, 0.1% Bovine Serum Albumin, 0.01% Tween-20.
Procedure: To 10 μl of PDK1-4 peptide, 0.5 μl of test compound in dimethyl sulfoxide is added. PDK1 kinase and ATP are mixed. 10 μl of the PDK1 kinase/ATP mix is added to start the reaction. The reaction is allowed to proceed for 3-18 hours. The reactions are stopped by adding 10 μl of the EDTA-containing stop buffer. Beads are mixed with antibody. 25 μl of the bead/antibody mix is added to the stopped reactions. Plates are incubated at room temperature overnight to allow for detection development before being read. The assay is run is a 384-well format. […]

[1] = PC-3, Cell Proliferation Assay, PC3

CNS(=O)(=O)Cc1ccc(Nc2ncc3ccc(OC4CCN(C(C)C)CC4)cc3n2)cc1 [Compound 990, 1-(4-(7-(1-isopropylpiperidin-4-yloxy)quinazolin-2-ylamino)phenyl)-N-methylmethanesulfonamide]
EC50 (PC-3 cells; PC-3, PC3 cells): < 5 µM

CNC(=O)Cc1cccc(NC(=O)Cc2cccc(Nc3ncc4cccc(OC5CCN(C(C)C)CC5)c4n3)c2)c1 [Compound 1004, 2-(3-(8-(1-isopropylpiperidin-4-yloxy)quinazolin-2-ylamino)phenyl)-N-(3-(2-(methylamino)-2-oxoethyl)phenyl)acetamide]
EC50 (PC-3 cells; PC-3, PC3 cells): < 5 µM

CC(C)NC(=O)Cc1ccc(Nc2ncc3cccc(OC4CCN(C(C)C)CC4)c3n2)cc1 [Compound 967, N-isopropyl-2-(4-(8-(1-isopropylpiperidin-4-yloxy)quinazolin-2-ylamino)phenyl)acetamide]
EC50 (PC-3 cells; PC-3, PC3 cells): < 5 µM

CC(C)N1CCC(Oc2cccc3cnc(Nc4ccc(CC(N)=O)cc4)nc23)CC1 [Compound 970, 2-(4-(8-(1-isopropylpiperidin-4-yloxy)quinazolin-2-ylamino)phenyl)acetamide]
EC50 (PC-3 cells; PC-3, PC3 cells): < 5 µM

CC(=O)Nc1cccc(-c2ccc3cnc(Nc4ccc(S(N)(=O)=O)cc4)nc3c2)c1 [Compound 126, N-{3-[2-(4-Sulfamoyl-phenylamino)-quinazolin-7-yl]-phenyl}-acetamide]
IC50 (PDK1 kinase): 5 to 10 µM

CC(C)NC(=O)Cc1cccc(Nc2ncc3cccc(OC4CCN(C(C)C)CC4)c3n2)c1 [Compound 1005, N-isopropyl-2-(3-(8-(1-isopropylpiperidin-4-yloxy)quinazolin-2-ylamino)phenyl)acetamide]
EC50 (PC-3 cells; PC-3, PC3 cells): < 5 µM

CC(=O)Nc1ccc(Nc2ncc3ccc(OC4CCNCC4)cc3n2)cc1C [Compound 1014, N-(2-methyl-4-(7-(piperidin-4-yloxy)quinazolin-2-ylamino)phenyl)acetamide]
EC50 (PC-3 cells; PC-3, PC3 cells): < 5 µM

CNc1ncc2ccc(O)c(C3CCN(C(C)C)CC3)c2n1 [Compound 323, 8-(1-isopropylpiperidin-4-yl)-2-(methylamino)quinazolin-7-ol]
EC50 (PC-3 cells; [1]): 5 to 10 µM

Cc1ccc(OC2CCNCC2)c2nc(Nc3ccc(N4CCNCC4)cc3)ncc12 [Compound 374, 5-methyl-N-(4-(piperazin-1-yl)phenyl)-8-(piperidin-4-yloxy)quinazolin-2-amine]
EC50 (PC-3 cells; [1]): 5 to 10 µM

NC(=O)c1cccc(Oc2cccc3cnc(Nc4ccc(S(N)(=O)=O)cc4)nc23)c1 [Compound 411, 3-(2-(4-sulfamoylphenylamino)quinazolin-8-yloxy)benzamide]
IC50 (PDK1 kinase; PDK1 Kinase Alpha Screen Assay): < 5 µM

NS(=O)(=O)c1ccc(Nc2ncc3ccc(Oc4ccnc(F)c4)cc3n2)cc1 [Compound 416, 4-(7-(2-fluoropyridin-4-yloxy)quinazolin-2-ylamino)benzenesulfonamide]
IC50 (PDK1 kinase; PDK1 Kinase Alpha Screen Assay): < 5 µM

CS(=O)(=O)c1cccc(-c2ccc3cnc(Nc4ccc(S(N)(=O)=O)cc4)nc3c2)c1 [Compound 128, 4-[7-(3-Methanesulfonyl-phenyl)-quinazolin-2-ylamino]-benzenesulfonamlde]
IC50 (PDK1 kinase): < 5 µM

COc1ccccc1Oc1cccc2cnc(Nc3ccc(S(N)(=O)=O)cc3)nc12 [Compound 408, 4-(8-(2-methoxyphenoxy)quinazolin-2-ylamino)benzenesulfonamide]
IC50 (PDK1 kinase; PDK1 Kinase Alpha Screen Assay): < 5 µM

CS(=O)(=O)Nc1cccc(-c2ccc3cnc(Nc4ccc(S(N)(=O)=O)cc4)nc3c2)c1 [Compound 129, 4-[7-(3-Methanesulfonylamino-phenyl)-quinazolin-2-ylamino]-benzenesulfonamide]
IC50 (PDK1 kinase): 10 to 25 µM

CCCCNS(=O)(=O)c1cccc(Nc2ncc3cccc(-c4cccc(NC(C)=O)c4)c3n2)c1 [Compound 87, N-{3-[2-(3-Butylsulfamoyl-phenylamino)-quinazolin-8-yl]-phenyl}-acetamide]
IC50 (PDK1 kinase): 5 to 10 µM

NS(=O)(=O)c1ccc(Nc2ncc3cccc(Oc4ccnc(F)c4)c3n2)cc1 [Compound 412, 4-(8-(2-fluoropyridin-4-yloxy)quinazolin-2-ylamino)benzenesulfonamide]
IC50 (PDK1 kinase; PDK1 Kinase Alpha Screen Assay): < 5 µM

NC(=O)c1ccccc1-c1ccc2cnc(Nc3ccc(S(N)(=O)=O)cc3)nc2c1 [Compound 125, 2-[2-(4-Sulfamoyl-phenylamino)-quinazolin-7-yl]-benzamide]
IC50 (PDK1 kinase): < 5 µM
